Type in all cases: functional
Assay [1] is filed under the species Rattus norvegicus. The experiment in a line: Pressor activity in rat assessed as weight basis relative to mammalian [Ile5]angiotensin 2.
Assay [2] is filed under the species Rattus norvegicus. The experiment in a line: Pressor activity in rat assessed as weight basis relative to mammalian [Val5]angiotensin 2.
The species entered for assay [3] is Rattus norvegicus. The experiment in a line: Pressor activity in rat assessed as weight basis relative to mammalian [Ile5]angiotensin 1.
Assay [4] is filed under the species Rattus norvegicus. The experiment in a line: Pressor activity in rat assessed as molar basis relative to mammalian [Ile5]angiotensin 1.
Assay [5] is filed under the species Rattus norvegicus. The experiment in a line: Pressor activity in rat assessed as weight basis relative to mammalian [Val5]angiotensin 1.
The species named for assay [6] is Rattus norvegicus. The experiment in a line: Pressor activity in rat assessed as molar basis relative to mammalian [Val5]angiotensin 1.
For assay [7], the species on record is Rattus norvegicus. The experiment in a line: Pressor activity in rat assessed as molar basis relative to mammalian [Ile5]angiotensin 2.
Assay [8] is filed under the species Rattus norvegicus. The experiment in a line: Pressor activity in rat assessed as molar basis relative to mammalian [Val5]angiotensin 2.
Assay [9] is filed under the species Rattus norvegicus. The experiment in a line: Pressor activity in ganglion-blocked vagotomized rat assessed as weight basis relative to mammalian [Ile5]angiotensin 2.

`CC[C@H](C)[C@H](NC(=O)[C@H](Cc1ccc(O)cc1)NC(=O)[C@@H](NC(=O)[C@H](CCCNC(=N)N)NC(=O)[C@@H](N)CC(=O)O)C(C)C)C(=O)N[C@@H](Cc1cnc[nH]1)C(=O)N1CCC[C@H]1C(=O)N[C@@H](Cc1ccccc1)C(=O)O` [ANGIOTENSIN II]: the figures for the Activity in the assay filed under Rattus norvegicus [1] and in the assay filed under Rattus norvegicus [2] were 100% and 73.5%, respectively.
Turning to H-DRVYIHPFHL-OH, the Activity in the assay filed under Rattus norvegicus [1] came out at 58.6%; in the assay filed under Rattus norvegicus [2] it was 43.1%.
For H-DRVYVHPF-OH [[Val5] - ANGIOTENSIN II] the same measures were 136% and 100%.
Regarding H-DRVYVHPFHL-OH, the figures for the Activity in the assay filed under Rattus norvegicus [1] and in the assay listed under Rattus norvegicus [2] were 51.5% and 37.8%, respectively.
On to H-DRVYVHPFSL-OH, for which the Activity in the assay listed under Rattus norvegicus [3] was found to be 160.4%; in the assay listed under Rattus norvegicus [4], 157%; in the assay listed under Rattus norvegicus [5], 182.8%; in the assay filed under Rattus norvegicus [6], 180.8%; in the assay listed under Rattus norvegicus [1] it was 94.1%; in the assay listed under Rattus norvegicus [7], 114.4%. In addition, the results for the Activity in the assay listed under Rattus norvegicus [2], in the assay filed under Rattus norvegicus [8] and in the assay listed under Rattus norvegicus [9] were 69.2%, 85.1% and 91.2%, respectively.

Values taken from ChEMBL document CHEMBL3244201, “Synthesis and specific pressor activity of [1-aspartic acid,5-valine,9-serine]angiotensin I ("fowl angiotensin I")” (1977).
